The results in this text go back to ChEMBL document CHEMBL1909046, “DrugMatrix in vitro pharmacology data”.

pIC50, pKi: −log10 of the molar value.

One data set deals with Carbonic anhydrase 2 (Homo sapiens, UniProt P00918). As to the kind of experiment: DRUGMATRIX: Carbonic Anhydrase II enzyme inhibition (substrate: 4-Nitrophenyl acetate (4-NPA)). Format: tissue-based. The settings on record: erythrocyte; Not Active = under 50% inhibition at 10 µM.
The nature of data set [1]: DRUGMATRIX: Calcium Channel Type L, Dihydropyridine radioligand binding (ligand: [3H] Nitrendipine). Format: cell membranes, Rattus norvegicus, Wistar, Cerebral cortex, Membrane. The following applies: Not Active = under 50% inhibition at 10 µM.
Data set [2] can be described thus: DRUGMATRIX: Potassium Channel [KATP] radioligand binding (ligand: [3H] Glyburide). The data set is classed as cell membranes, Membrane. The settings on record: hit-t15; Not Active = under 50% inhibition at 10 µM.
Data set [3] can be described thus: DRUGMATRIX: Calcium Channel Type L, Phenylalkylamine radioligand binding (ligand: [3H] (-)-Desmethoxyverapamil (D-888)). Format: cell membranes, Rattus norvegicus, Wistar, Brain, Membrane. The following applies: Not Active = under 50% inhibition at 10 µM.
The target of another data set is Cytochrome P450 3A4 (Homo sapiens, UniProt P08684). The following applies: bti-tn-5b1-4. Note: in other assays of this panel Not Active means under 50% inhibition at 10 µM.
Another data set has as its target Substance-P receptor (Homo sapiens, UniProt P25103). Format: cell membranes, CHO, Membrane. The settings on record: for IC50: cho. For all read-outs here: in other assays of this panel Not Active means under 50% inhibition at 10 µM.
A short description of data set [4]: DRUGMATRIX: beta-Lactamase enzyme inhibition (substrate: Nitrocefin). Further details: species or system Bacillus cereus. The following applies: Not Active = under 50% inhibition at 10 µM.

Chain of Cytochrome P450 3A4 (P08684 whole entry): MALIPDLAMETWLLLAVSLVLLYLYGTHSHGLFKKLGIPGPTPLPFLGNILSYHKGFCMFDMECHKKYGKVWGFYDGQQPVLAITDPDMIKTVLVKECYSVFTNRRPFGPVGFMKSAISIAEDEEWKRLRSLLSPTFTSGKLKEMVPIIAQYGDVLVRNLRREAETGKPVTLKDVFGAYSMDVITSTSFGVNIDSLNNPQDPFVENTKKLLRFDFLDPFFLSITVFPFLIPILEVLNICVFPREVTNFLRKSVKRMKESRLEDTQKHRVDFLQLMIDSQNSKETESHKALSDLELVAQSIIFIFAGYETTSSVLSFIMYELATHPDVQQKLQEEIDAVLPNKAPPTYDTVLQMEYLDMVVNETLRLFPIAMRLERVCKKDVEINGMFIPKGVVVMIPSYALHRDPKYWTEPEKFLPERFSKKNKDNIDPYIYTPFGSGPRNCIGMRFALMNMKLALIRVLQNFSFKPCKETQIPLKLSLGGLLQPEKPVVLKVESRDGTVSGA
Chain of Substance-P receptor (P25103 whole entry): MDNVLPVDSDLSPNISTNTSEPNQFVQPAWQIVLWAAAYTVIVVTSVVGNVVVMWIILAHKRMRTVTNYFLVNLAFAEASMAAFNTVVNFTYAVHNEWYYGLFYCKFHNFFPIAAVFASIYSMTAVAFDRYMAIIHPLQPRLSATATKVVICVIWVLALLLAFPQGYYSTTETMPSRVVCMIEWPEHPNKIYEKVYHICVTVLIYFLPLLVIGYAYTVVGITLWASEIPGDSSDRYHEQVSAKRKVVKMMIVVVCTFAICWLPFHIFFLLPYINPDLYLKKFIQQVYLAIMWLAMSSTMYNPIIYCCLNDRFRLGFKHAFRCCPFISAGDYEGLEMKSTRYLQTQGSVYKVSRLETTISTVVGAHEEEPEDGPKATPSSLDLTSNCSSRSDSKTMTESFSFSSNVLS

For `COc1ccc(CCN(C)CCCC(C#N)(c2ccc(OC)c(OC)c2)C(C)C)cc1OC` (configuration not stated), the IC50 entry (on Carbonic anhydrase 2; in data set [1]; in data set [2]; at Cytochrome P450 3A4; at Substance-P receptor; in data set [4]) was “Not Active” each time. Further, the Ki entry (in data set [1]; in data set [2]; on Cytochrome P450 3A4; in data set [4]) was “Not Active” each time. In addition, in data set [3] (read-out: IC50), the pIC50 was 7.33. In addition, the pKi in data set [3] (read-out: Ki) was 7.35.

For `CC(C)Cc1ccc([C@@H](C)C(=O)O)cc1` [(R)-IBUPROPHEN], the IC50 result (on Carbonic anhydrase 2; in data set [1]; in data set [2]; in data set [3]; at Cytochrome P450 3A4; at Substance-P receptor) was “Not Active” throughout. Moreover, in data set [4], the IC50 result is on record as “Not Active”. For the same compound, the Ki entry (in data set [1]; in data set [2]; in data set [3]; on Cytochrome P450 3A4; in data set [4]) was “Not Active” each time.

As to `CC(C)NCC(O)c1ccc(O)c(O)c1` (configuration not stated) [ISOPROTERENOL], the IC50 result (at Carbonic anhydrase 2; in data set [1]; in data set [2]; in data set [3]; at Cytochrome P450 3A4; on Substance-P receptor) was “Not Active” each time. The IC50 result in data set [4] was “Not Active”. Moreover, the Ki entry (in data set [1]; in data set [2]; in data set [3]; at Cytochrome P450 3A4; in data set [4]) was “Not Active” throughout.

On to `NC(=O)N1C(=O)/C(=C(\O)c2cccs2)c2cc(Cl)ccc21` [TENIDAP], for which the IC50 entry (against Carbonic anhydrase 2; in data set [1]; in data set [2]; in data set [3]; on Cytochrome P450 3A4; at Substance-P receptor) was “Not Active” throughout. Besides, the IC50 result in data set [4] is listed as “Not Active”. In addition, the Ki result (in data set [1]; in data set [2]; in data set [3]; at Cytochrome P450 3A4; in data set [4]) was “Not Active” each time.

For the compound `NC1CCN(c2nc3c(cc2F)c(=O)c(C(=O)O)cn3-c2ccc(F)cc2F)C1` (configuration not stated) [TOSUFLOXACIN], the IC50 entry (on Carbonic anhydrase 2; in data set [1]; in data set [2]; in data set [3]; against Cytochrome P450 3A4; against Substance-P receptor) was “Not Active” each time. The IC50 entry in data set [4] is “Not Active”. The Ki result (in data set [1]; in data set [2]; in data set [3]; on Cytochrome P450 3A4; in data set [4]) was “Not Active” throughout.

`N#Cc1ccc(C(c2ccc(C#N)cc2)n2cncn2)cc1` [LETROZOLE]: the IC50 entry (against Carbonic anhydrase 2; in data set [1]; in data set [2]; in data set [3]; at Cytochrome P450 3A4; against Substance-P receptor) was “Not Active” throughout. Also, the IC50 result in data set [4] is “Not Active”. Further, the Ki entry (in data set [1]; in data set [2]; in data set [3]; at Cytochrome P450 3A4; in data set [4]) was “Not Active” each time.

As to `O=C(Nc1ccc(Br)cc1)c1cc(Br)cc(Br)c1O` [TRIBROMSALAN], the IC50 entry (against Carbonic anhydrase 2; in data set [1]; in data set [2]; in data set [3]; against Cytochrome P450 3A4; against Substance-P receptor) was “Not Active” in each case. Also, the IC50 entry in data set [4] was “Not Active”. In addition, the Ki entry (in data set [1]; in data set [2]; in data set [3]; on Cytochrome P450 3A4; in data set [4]) was “Not Active” in each case.

For `O=C1Nc2ccc(Cl)cc2C(c2ccccc2Cl)=NC1O` (configuration not stated) [LORAZEPAM], the IC50 result (against Carbonic anhydrase 2; in data set [1]; in data set [2]; in data set [3]; at Cytochrome P450 3A4; at Substance-P receptor) was “Not Active” in each case. In addition, the IC50 entry in data set [4] is “Not Active”. In addition, the Ki result (in data set [1]; in data set [2]; in data set [3]; at Cytochrome P450 3A4; in data set [4]) was “Not Active” in each case.

For the compound `CCN(CC)CCOc1ccc(/C(=C(/Cl)c2ccccc2)c2ccccc2)cc1` [ENCLOMIPHENE], the IC50 entry at Carbonic anhydrase 2, at Cytochrome P450 3A4 and against Substance-P receptor was “Not Active” in each case. Further, the Ki result on Cytochrome P450 3A4 was “Not Active”.

Take `CN[C@H]1CC[C@@H](c2ccc(Cl)c(Cl)c2)c2ccccc21` [SERTRALINE]: the IC50 result at Carbonic anhydrase 2, on Cytochrome P450 3A4 and against Substance-P receptor was “Not Active” throughout. Besides, the Ki entry on Cytochrome P450 3A4 is “Not Active”.

In the case of `CCN(CC)CC(=O)Nc1c(C)cccc1C` [LIDOCAINE], the IC50 entry (on Carbonic anhydrase 2; in data set [1]; in data set [2]; in data set [3]; against Substance-P receptor; in data set [4]) was “Not Active” each time. Also, the Ki entry in data set [1], in data set [2], in data set [3] and in data set [4] was “Not Active” each time.

For the compound `CN(C)CCOC(c1ccccc1)c1ccccc1` [DIPHENHYDRAMINE], the IC50 entry on Carbonic anhydrase 2 and against Substance-P receptor was “Not Active” each time.

For the compound `CN(C/C=C/C#CC(C)(C)C)Cc1cccc2ccccc12` [TERBINAFINE], the IC50 result (at Carbonic anhydrase 2; in data set [1]; in data set [2]; in data set [3]; against Substance-P receptor; in data set [4]) was “Not Active” throughout. Also, the Ki result in data set [1], in data set [2], in data set [3] and in data set [4] was “Not Active” each time.

Regarding `CCCCNc1ccc(C(=O)OCCN(C)C)cc1` [TETRACAINE], the IC50 entry (against Carbonic anhydrase 2; in data set [1]; in data set [2]; in data set [3]; against Substance-P receptor; in data set [4]) was “Not Active” throughout. The Ki entry in data set [1], in data set [2], in data set [3] and in data set [4] was “Not Active” throughout.

For the compound `Cc1c(C)c2c(c(C)c1O)CCC(C)(CN1CCN(c3cc(N4CCCC4)nc(N4CCCC4)n3)CC1)O2` (configuration not stated), the IC50 result (on Carbonic anhydrase 2; in data set [2]; in data set [3]; on Substance-P receptor; in data set [4]) was “Not Active” throughout. Besides, in data set [1] (read-out: IC50), the pIC50 is 5.78. Moreover, the pKi in data set [1] (read-out: Ki) was 5.97. Further, the Ki result in data set [2], in data set [3] and in data set [4] was “Not Active” in each case.

Turning to `Fc1ccc(C(c2ccc(F)cc2)N2CCN(C/C=C/c3ccccc3)CC2)cc1` [FLUNARIZINE], the IC50 entry against Carbonic anhydrase 2, on Cytochrome P450 3A4 and against Substance-P receptor was “Not Active” in each case. Further, the Ki result on Cytochrome P450 3A4 is given as “Not Active”.

As for `O.O.O.O.O.O.[Cl-].[Cl-].[Sr+2]` [STRONTIUM CHLORIDE HEXAHYDRATE], the IC50 result (on Carbonic anhydrase 2; in data set [1]; in data set [3]; against Cytochrome P450 3A4; against Substance-P receptor; in data set [4]) was “Not Active” in each case. The Ki result (in data set [1]; in data set [3]; at Cytochrome P450 3A4; in data set [4]) was “Not Active” in each case.

For `CNCCC(Oc1ccc(C(F)(F)F)cc1)c1ccccc1` (configuration not stated) [FLUOXETINE], the IC50 entry against Carbonic anhydrase 2, at Cytochrome P450 3A4 and against Substance-P receptor was “Not Active” each time. Besides, the Ki result at Cytochrome P450 3A4 is listed as “Not Active”.

Consider `CO[C@H]1/C=C/O[C@@]2(C)Oc3c(C)c(O)c4c(O)c(c(/C=N/N5CCN(C6CCCC6)CC5)c(O)c4c3C2=O)NC(=O)/C(C)=C\C=C\[C@H](C)[C@H](O)[C@@H](C)[C@@H](O)[C@@H](C)[C@H](OC(C)=O)[C@@H]1C` [RIFAPENTINE], for which the IC50 result (on Carbonic anhydrase 2; in data set [1]; in data set [2]; in data set [3]; against Substance-P receptor; in data set [4]) was “Not Active” throughout. Further, the Ki result in data set [1], in data set [2], in data set [3] and in data set [4] was “Not Active” throughout.

On to `Cc1ccc(NC(=O)c2ccc(CN3CCN(C)CC3)cc2)cc1Nc1nccc(-c2cccnc2)n1` [IMATINIB], for which, at Substance-P receptor, the IC50 result is “Not Active”.

With `Clc1ccc(COC(Cn2ccnc2)c2ccc(Cl)cc2Cl)cc1` (configuration not stated) [ECONAZOLE], the IC50 result on Carbonic anhydrase 2 is recorded as “Not Active”. The pIC50 on Substance-P receptor (read-out: IC50) was 4.93. Moreover, the pKi at Substance-P receptor (read-out: Ki) is 5.19.

`COc1cc2nc(N3CCN(C(=O)C4CCCO4)CC3)nc(N)c2cc1OC` (configuration not stated) [TERAZOSIN]: the IC50 entry (on Carbonic anhydrase 2; in data set [1]; in data set [3]; at Substance-P receptor; in data set [4]) was “Not Active” throughout. Further, the Ki result in data set [1], in data set [3] and in data set [4] was “Not Active” each time.

In the case of `CCN1CCC[C@H]1CNC(=O)c1cc(S(N)(=O)=O)ccc1OC` [LEVOSULPIRIDE], the IC50 entry (in data set [1]; in data set [2]; in data set [3]; against Cytochrome P450 3A4; against Substance-P receptor; in data set [4]) was “Not Active” in each case. Moreover, the Ki result (in data set [1]; in data set [2]; in data set [3]; on Cytochrome P450 3A4; in data set [4]) was “Not Active” throughout.
